In test [1] the test system is phosphorylation of ERK (Thr202/Tyr204). In words: Test Example 2: ERK phosphorylation inhibition action in AsPC-1, Cell ELISA. It is filed as cell-based, human. Conditions: AsPC-1 cells, 0% = 1 μM trametinib. As for the experimental part: Test Example 2: Evaluation of ERK Phosphorylation Inhibition Action on Human G12D Mutant KRAS-Positive Pancreatic Cancer Line AsPC-1
The ERK phosphorylation inhibition action of test compounds was evaluated by measuring phosphorylation of the 202th threonine (Thr202) and the 204th tyrosine (Tyr204) of ERK located downstream of the KRAS signal by Cell ELISA.
AsPC-1 cells were seeded on a 384-well plate (from Greiner bio-one) at 36 μL/well to give 2.0×10^4 cells per well. As for the cell culture conditions, a RPMI 1640 medium containing 10% fetal bovine serum was used in the presence of 5% CO2 at 37° C.
The next day, the test compounds (6 points having final concentrations in the range of 10 μM to 3.0 nM), trametinib (MEK inhibitor) of a final concentration of 1 μM as a positive control and DMSO, which was the solvent for the test compounds, as a negative control were diluted 100-fold with a fresh medium and were added at 4 μL per well. The cells were then cultured for 24 hours. After culturing, a 30% glyoxal solution (40% glyoxal [from Nacalai Tesque] was diluted with PBS) was quickly added at 30 μL per well, and the plate was allowed to stand for 90 minutes at room temperature to thus immobilize the cells. Then, the plate was centrifuged to remove the supernatant (using a centrifugal dehydrator machine, the supernatant was removed by the same method hereinafter), and 0.1% Triton X-100-containing PBS was added at 20 μL per well. After allowing to stand for 10 minutes at room temperature, the supernatant was removed by centrifugation, and the same operation was further repeated. Next, 0.5% SDS-containing PBS was added at 20 μL per well, and after allowing to stand at room temperature for 30 minutes, the supernatant was removed by centrifugation. Subsequently, a blocking solution (Intercept Blocking Buffer) was added at 20 μL per well, and the plate was allowed to stand for 1 hour at room temperature. The supernatant was removed by centrifugation, and an ERK (Thr202/Tyr204) phosphorylation antibody (Phospho-p44/42 MAPK (Erk 1/2) (Thr202/Tyr204) (D13.14.4E) XP Rabbit mAb; from Cell Signaling Technology) diluted 2,500-fold with a blocking solution was added at 10 or 15 μL per well as a primary antibody. The plate was allowed to stand at 4° C. overnight.
The next day, the plate was centrifuged to remove the supernatant. 0.05% Tween-20-containing PBS was added at 50 μL per well, and the supernatant was removed by centrifugation to thus wash each well. The washing was performed three times in total. After washing, Goat anti-Rabbit IgG H&L (IRDye 800CW) diluted 1,000-fold with a blocking solution was added at […] as a secondary antibody, and the plate was allowed to stand for 1 hour at room temperature. The plate was centrifuged to remove the supernatant, and each well was washed three times with 0.05% Tween-20-containing PBS in the same manner as after the primary antibody reaction. After removing the supernatant by centrifuging the plate, the plate was dried as it was with air at room temperature for 3 hours or more, and the 800-nm fluorescent signals were measured with Aerius.
With the signaling value at the time of addition of DMSO taken as 100% and with the signaling value at the time of addition of 1 μM trametinib taken as 0%, the 50% inhibition values (IC50) were calculated by Sigmoid-Emax model nonlinear regression analysis. The molecular weights of the test compounds were calculated as the molecular weights of the dihydrochloride for Example No. 22, the trihydrochlorides for Example Nos. 2-7, 9-12, 14-18 and 30, the tetrahydrochlorides for Example Nos. 19 and 46, the pentahydrochloride for Example No. 21 and the free forms forming no salt for the remaining Example Nos. The results for some test compounds of the formula (I) are shown in Table 3.
Background: ELISA stands for enzyme-linked immunosorbent assay.

For test [2], the system named is human G12D mutant KRAS-positive pancreatic cancer line AsPC-1. The test is described as follows: Test Example 3: non-anchorage-dependent cell growth inhibition, spheroid 3D cell culture. It is filed as cell-based. To be noted: AsPC-1 spheroid 3D culture, 6 days, CellTiter Glo 2.0. As for the experimental part:
Test Example 3: Evaluation of Non-Anchorage-Dependent Cell Growth Inhibition Action on Human G12D Mutant KRAS-Positive Pancreatic Cancer Line AsPC-1
The non-anchorage-dependent cell growth inhibition action of test compounds was evaluated by spheroid 3D cell culture.
AsPC-1 cells were seeded on a low-cell-adhesive round bottom 384-well plate (PrimeSurface: from Sumitomo Bakelite) at 36 μL/well to give 5×10^2 cells per well. The cell culture was performed under the same conditions as in the Test Example 2.
The next day, the test compounds (6 points having final concentrations in the range of 10 μM to 3.0 nM) and DMSO, which was the solvent for the test compounds, as a negative control were diluted 100-fold with a fresh medium and were added at 4 μL per well. After culturing in the presence of […] at 37° C. for 6 days, CellTiter Glo 2.0 (from Promega) was added at 20 μL per well. After stirring with a plate mixer (from FINEPCR) at normal temperature for 1 hour, the luminescent signals were measured with ARVO X3 (from PerkinElmer).
With the signaling value in treatment with DMSO taken as […] and with the signaling value in the medium alone without cells taken as […], the […] inhibition values (IC50) were calculated by Sigmoid-Emax model nonlinear regression analysis. The molecular weights of the test compounds were calculated as the molecular weights of the dihydrochloride for Example No. 22, the trihydrochlorides for Example Nos. 2-7, 9-12, 14-18 and 30, the tetrahydrochlorides for Example Nos. 19 and 46, the pentahydrochloride for Example No. 21 and the free forms forming no salt for the remaining Example Nos. The results for some test compounds of the formula (I) are shown in Table 4.
(In general: Cellular ATP, detected with luciferase, serves as a proxy for viable cell number.)

Where [3] appears, read: Homo sapiens, ASPC1, 24 h, read-out: IC50.
[4] abbreviates: Homo sapiens, ASPC1, 144 h, read-out: IC50.

Molecules are shown by their SMILES. Where a name gives a salt, the structure may show the parent alone. Read-outs that look alike come from different tables or passages of the source.

Results on 15 molecules are retold here after US20250340561A1, “QUINAZOLINE COMPOUND FOR INDUCING DEGRADATION OF G12D MUTANT KRAS PROTEIN” (Astellas Pharma Inc., priority 2021, published 2025).

What is called IC50 is the concentration that inhibits the measured activity by half. Take `Cc1c(F)cc2[nH]ncc2c1-c1c(C2CC2)cc2c(N3C[C@@H]4C[C@H]3CN4)nc(OC3CCOCC3)nc2c1OCc1ccc(-c2cn([C@H](C(=O)N3C[C@H](O)C[C@H]3C(=O)N[C@@H](CO)c3ccc(Br)cc3)C(C)C)nn2)cc1` [Example 12]: the IC50 in test [1] (Homo sapiens, ASPC1, 24 h) worked out at 37 nM; in test [2] (Homo sapiens, ASPC1, 144 h), 112 nM.
Taken in the same sequence, the figures for `Cc1c(F)cc2[nH]ncc2c1-c1c(C2CC2)cc2c(N3C[C@@H]4C[C@H]3CN4)nc(OC3CCOCC3)nc2c1OCc1ccc(-c2cn([C@H](C(=O)N3C[C@H](O)C[C@H]3C(=O)N[C@@H](CO)c3ccc(F)cc3)C(C)C)nn2)cc1` [Example 13] were 29 nM and 74 nM.
In the case of `Cc1ncsc1-c1ccc([C@H](CO)NC(=O)[C@@H]2C[C@@H](O)CN2C(=O)[C@H](C(C)C)n2cc(-c3ccc(COc4c(-c5cc(O)cc(F)c5C)c(C5CC5)cc5c(N6C[C@@H]7C[C@H]6CN7)nc(OC6CCOCC6)nc45)cc3)nn2)cc1` [Example 15], the IC50 was found to be 22 nM in test [1] (Homo sapiens, ASPC1, 24 h) and 64 nM in test [2] (Homo sapiens, ASPC1, 144 h).
As for `Cc1ncsc1-c1ccc([C@@H](NC(=O)[C@@H]2C[C@@H](O)CN2C(=O)[C@H](C(C)C)n2cc(-c3ccc(COc4c(-c5c(C)c(F)cc6[nH]ncc56)c(C5CC5)cc5c(N6C[C@@H]7C[C@H]6CN7)nc(OC6CCOCC6)nc45)cc3)nn2)C(F)F)cc1` [Example 16], the values for the IC50 in test [1] (setting [3]) and in test [2] (setting [4]) were 67 nM and 185 nM, respectively.
In the case of `Cc1ncsc1-c1ccc([C@H](CF)NC(=O)[C@@H]2C[C@@H](O)CN2C(=O)[C@H](C(C)C)n2cc(-c3ccc(COc4c(-c5c(C)c(F)cc6[nH]ncc56)c(C5CC5)cc5c(N6C[C@@H]7C[C@H]6CN7)nc(OC6CCOCC6)nc45)cc3)nn2)cc1` [Example 17], the IC50 amounted to 36 nM in test [1] (setting [3]) and 104 nM in test [2] (setting [4]).
Taken in the same sequence, the figures for `Cc1c(F)cc2[nH]ncc2c1-c1c(C2CC2)cc2c(N3C[C@@H]4C[C@H]3CN4)nc(OC3CCOCC3)nc2c1OCc1ccc(-c2cn([C@H](C(=O)N3C[C@H](O)C[C@H]3C(=O)N[C@@H](CO)c3ccc(-c4scnc4CO)cc3)C(C)C)nn2)cc1` [Example 18, (4R)-1-[(2S)-2-(4-{4-[({6-cyclopropyl-4-[(1S,4S)-2,5-diazabicyclo[2.2.1]heptan-2-yl]-7-(6-fluoro-5-methyl-1H-indazol-4-yl)-2-[(oxan-4-yl)oxy]quinazolin-8-yl}oxy)methyl]phenyl}-1H-1,2,3-triazol-1-yl)-3-methylbutanoyl]-4-hydroxy-N-[(1R)-2-hydroxy-1-{4-[4-(hydroxymethyl)-1,3-thiazol-5-yl]phenyl}ethyl]-L-prolinamide n hydrochloride] were 28 nM and 70 nM.
For `Cc1ncsc1-c1ccc([C@H](CN(C)C)NC(=O)[C@@H]2C[C@@H](O)CN2C(=O)[C@H](C(C)C)n2cc(-c3ccc(COc4c(-c5c(C)c(F)cc6[nH]ncc56)c(C5CC5)cc5c(N6C[C@@H]7C[C@H]6CN7)nc(OC6CCOCC6)nc45)cc3)nn2)cc1` [Example 19], in that order: 51 nM and 138 nM.
Take `Cc1c(F)cc2[nH]ncc2c1-c1c(C2CC2)cc2c(N3C[C@@H]4C[C@H]3CN4)nc(OC3CCOCC3)nc2c1OCc1ccc(-c2cn([C@H](C(=O)N3C[C@H](O)C[C@H]3C(=O)N[C@@H](CO)c3ccc(N4CCOC4=O)cc3)C(C)C)nn2)cc1` [Example 20, (4R)-1-[(2S)-2-(4-{4-[({6-cyclopropyl-4-[(1S,4S)-2,5-diazabicyclo[2.2.1]heptan-2-yl]-7-(6-fluoro-5-methyl-1H-indazol-4-yl)-2-[(oxan-4-yl)oxy]quinazolin-8-yl}oxy)methyl]phenyl}-1H-1,2,3-triazol-1-yl)-3-methylbutanoyl]-4-hydroxy-N-{(1R)-2-hydroxy-1-[4-(2-oxo-1,3-oxazolidin-3-yl)phenyl]ethyl}-L-prolinamide]: the IC50 in test [1] (setting [3]) came to 36 nM; in test [2] (setting [4]) it was 79 nM.
Taken in the same sequence, the figures for `Cc1ncsc1-c1ccc([C@H](CO)NC(=O)[C@@H]2C[C@@H](O)CN2C(=O)[C@H](C(C)C)n2cc(-c3ccc(COc4c(-c5c(C)c(F)cc6[nH]ncc56)c(C5CC5)cc5c(N6C[C@@H]7C[C@H]6CN7)nc(OC6CCN(CC(F)F)CC6)nc45)cc3)nn2)cc1` [Example 21] were 19 nM and 47 nM.
For the molecule `Cc1c(F)cc2[nH]ncc2c1-c1c(C2CC2)cc2c(N3C[C@@H]4C[C@H]3CN4)nc(OC3CCOCC3)nc2c1OCc1ccc(-c2cn([C@H](C(=O)N3C[C@H](O)C[C@H]3C(=O)N[C@@H](CO)c3ccc(-c4ccnn4C)cc3)C(C)C)nn2)cc1` [Example 22], the IC50 in test [1] (Homo sapiens, ASPC1, 24 h) worked out at 12 nM; in test [2] (Homo sapiens, ASPC1, 144 h), 27 nM.
Turning to `Cc1c(F)cc2[nH]ncc2c1-c1c(C2CC2)cc2c(N3C[C@@H]4C[C@H]3CN4)nc(OC3CCOCC3)nc2c1OCc1ccc(-c2cn([C@H](C(=O)N3C[C@H](O)C[C@H]3C(=O)N[C@@H](CO)c3ccc(-c4ccnn4C)cc3)C(C)C)nn2)cc1` [Example 23], the IC50 in test [1] (24 hours) was found to be 10 nM; in test [2] it was 21 nM.
Regarding `Cc1ncsc1-c1ccc([C@H](CO)NC(=O)[C@@H]2C[C@@H](O)CN2C(=O)[C@H](C(C)C)n2cc(-c3ccc(COc4c(-c5c(C)c(F)cc6[nH]ncc56)c(C5CC5)cc5c(N6C[C@@H]7C[C@H]6CN7)nc(OC6CCN(C7COC7)CC6)nc45)cc3)nn2)cc1` [Example 24], the IC50 in test [1] (Homo sapiens, ASPC1, 24 h) is 25 nM; in test [2] (Homo sapiens, ASPC1, 144 h), 55 nM.
For the molecule `CCc1ccncc1Oc1nc(N2C[C@@H]3C[C@H]2CN3)c2cc(C3CC3)c(-c3c(C)c(F)cc4[nH]ncc34)c(OCc3ccc(-c4cn([C@H](C(=O)N5C[C@H](O)C[C@H]5C(=O)N[C@@H](CO)c5ccc(-c6scnc6C)cc5)C(C)C)nn4)cc3)c2n1` [Example 25], the IC50 in test [1] (Homo sapiens, ASPC1, 24 h) worked out at 15 nM; in test [2] (Homo sapiens, ASPC1, 144 h), 66 nM.
Taken in the same sequence, the figures for `CCn1nccc1-c1ccc([C@H](CO)NC(=O)[C@@H]2C[C@@H](O)CN2C(=O)[C@H](C(C)C)n2cc(-c3ccc(COc4c(-c5c(C)c(F)cc6[nH]ncc56)c(C5CC5)cc5c(N6C[C@@H]7C[C@H]6CN7)nc(OC6CCOCC6)nc45)cc3)nn2)cc1` [Example 26] were 8 nM and 20 nM.
For `Cc1ncsc1-c1ccc([C@H](CO)NC(=O)[C@@H]2C[C@@H](O)CN2C(=O)[C@H](C(C)C)n2cc(-c3ccc(COc4c(-c5c(C)c(F)cc6[nH]ncc56)c(C5CC5)cc5c(N6C[C@@H]7C[C@H]6CN7)nc(OC6COC6)nc45)cc3)nn2)cc1` [Example 27], in that order: 27 nM and 103 nM.
